Read-outs that look alike come from different tables or passages of the source.
Key:
[1] = tested on: Escherichia coli 36; assay: Synergistic Protecting Effect on experimental mice infection; assay type: in vivo, ICR strain-mice (infected with Escherichia coli 36); conditions: combination 1:1 by weight, subcutaneous, one hour after i.p. challenge, survival over 4 days
Description: (i) Combination of Compound C (Compound of the present invention) and Ceftizoxime (known antimicrobial agent, hereinafter referred to as CZX) (1:1 by weight).
(ii) Combination of Compound C (Compound of the present invention) and Cefazolin (known antimicrobial agent, hereinafter referred to as CEZ) (1:1 by weight).
4-week-old male ICR strain-mice, weighing 21.5±1.5 g.
1.1×10^5 Colony forming unit of Escherichia coli 36 suspended in 0.5 ml of 5% mucin were intraperitoneally injected.
One hour after challenge, mice were treated subcutaneously with various doses of test compound. The ED50 values were calculated by the probit method from the number of mice surviving 4 days of observation.

[2] = molecular target: R-TEM Penicillinase (Escherichia coli, UniProt P62593); assay: Inactivation of β-Lactamase, direct spectrophotometric assay with chromogenic cephalosporin; assay type: biochemical, Escherichia coli 18; conditions: 100 μg/ml, 5 minutes at 37° C.
[3] = molecular target: Ia Cephalosporinase (Enterobacter cloacae, UniProt P05364); assay: as above; assay type: biochemical, Enterobacter cloacae 91; conditions: 5 min, read-out: Inactivation (%)
Description: Ia Cephalosporinase derived from Enterobacter cloacae 91.
Test compound solution (100 μg/ml) was incubated for 5 minutes at 37° C. with β-lactamase before determination of enzymatic activity. β-Lactamase activity was measured by direct spectrophotometric assay using a chromogenic cephalosporin as a substrate. The extent of inactivation was expressed as percent ratio of inactivated activity.

[4] = tested on: Staphylococcus aureus 209P JC-1; assay: in vitro antimicrobial activity, two-fold agar-plate dilution method (MIC); assay type: cell-based; conditions: S. aureus 209P JC-1, HI-agar, 37° C., 20 hours
Description: (§1) In vitro Antimicrobial activity was determined by the two-fold agar-plate dilution method as described below.
(§2) One loopful of an overnight culture of each test strain in Trypticase-soy broth (10^6 viable cells per ml) was streaked on heart infusion agar (HI-agar) containing graded concentrations of the test compound, and the minimal inhibitory concentration (MIC) was expressed in terms of μg/ml after incubation at 37° C. for 20 hours.

[5] = tested on: Esherichia coli NIHJ JC-2; assay: as above; assay type: cell-based; conditions: Escherichia coli, NIHJJC2; E. coli NIHJ JC-2; HI-agar, 37° C., 20 hours
Description: as §1, §2

Chain of R-TEM Penicillinase (P62593 24-286 limits assumed): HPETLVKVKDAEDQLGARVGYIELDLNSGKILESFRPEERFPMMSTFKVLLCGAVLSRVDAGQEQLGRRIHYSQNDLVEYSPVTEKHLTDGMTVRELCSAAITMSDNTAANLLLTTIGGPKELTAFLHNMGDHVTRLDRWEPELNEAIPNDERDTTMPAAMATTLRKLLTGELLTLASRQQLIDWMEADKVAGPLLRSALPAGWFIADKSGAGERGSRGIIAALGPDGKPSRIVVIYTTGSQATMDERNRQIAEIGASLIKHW
Chain of Ia Cephalosporinase (P05364 21-381): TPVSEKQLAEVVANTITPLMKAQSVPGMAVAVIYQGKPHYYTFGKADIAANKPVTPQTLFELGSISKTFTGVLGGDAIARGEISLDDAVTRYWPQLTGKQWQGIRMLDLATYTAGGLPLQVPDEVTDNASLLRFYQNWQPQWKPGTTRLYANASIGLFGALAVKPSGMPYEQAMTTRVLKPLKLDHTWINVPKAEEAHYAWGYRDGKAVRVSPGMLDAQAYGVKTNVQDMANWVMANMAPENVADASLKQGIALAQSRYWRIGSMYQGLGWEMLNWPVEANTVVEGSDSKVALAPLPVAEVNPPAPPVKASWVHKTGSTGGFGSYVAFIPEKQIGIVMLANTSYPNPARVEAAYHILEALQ

Row | Compound | ED50 values ([1]; (ii) with CEZ) [mg/kg] | Inactivation (%) [2] [%] | MIC [4] [µg/mL] | MIC [5] [µg/mL] | ED50 values ([1]; (i) with CZX) [mg/kg] | other results
1 | Cc1nnc(SCC2=C(C(=O)O)N3C(=O)[C@@H](NC(=O)Cn4cnnn4)[C@H]3SC2)s1 [CEZ, Cefazolin, reference compound] | 20.8 | – | – | – | – | –
2 | Cn1nnnc1SC1=C(C(=O)[O-])N2C(=O)[C@@H](C(C)(C)O)[C@H]2C1.[K+] [Compound D, Potassium (5R,6R)-3-(1-methyl-1H-tetrazol-5-ylthio)-6-(1-hydroxy-1-methylethyl)-7-oxo-1-azabicyclo[3.2.0]hept-2-ene-2-carboxylate] | – | > 95 | – | – | – | inhibition at 100 µg/mL [3]: > 95%
3 | CC(C)(O)[C@@H]1C(=O)N2C(C(=O)[O-])=C(Sc3ccncc3)C[C@H]12.[Na+] [Compound A, Sodium (5R, 6R)-3-(4-pyridylthio)-6-(1-hydroxy-1-methylethyl)-7-oxo-1-azabicyclo[3.2.0]hept-2-ene-2-carboxylate] | – | – | 0.1 | 0.1 | – | –
4 | CC(C)(O)[C@H]1C(=O)N2C(C(=O)[O-])=C(Sc3ccncc3)C[C@H]12.[Na+] [Compound C, Sodium (5R,6S)-3-(4-pyridylthio)-6-(1-hydroxy-1-methylethyl)-7-oxo-1-azabicyclo[3.2.0]hept-2-ene-2-carboxylate] | > 112 | > 95 | – | – | > 112 | inhibition at 100 µg/mL ([3]; 100 μg/ml, 5 minutes at 37° C., Ia Cephalosporinase): > 95%
5 | CO/N=C(\C(=O)N[C@@H]1C(=O)N2C(C(=O)O)=CCS[C@H]12)c1csc(N)n1 [CZX, Ceftizoxime, reference compound] | – | – | – | – | 3.42 | –
6 | Cc1nnc(SC2=C(C(=O)[O-])N3C(=O)[C@@H](C(C)(C)O)[C@H]3C2)s1.[K+] [Compound B, Potassium (5R, 6R)-3-(5-methyl-1,3,4-thiadiazol-2-ylthio)-6-(1-hydroxy-1-methylethyl)-7-oxo-1-azabicyclo[3.2.0]hept-2-ene-2-carboxylate] | – | – | 0.2 | 0.2 | – | –

From US4640915A, “1-azabicyclo[3.2.0]hept-2-ene-2-carboxylic acid derivatives” (Fujisawa Pharmaceutical Co., Ltd., priority 1982, dated 1987)
